The assay deals with T1, FZD8 (frizzled-8) cysteine-rich domain, FZD8CRD (Mus musculus, UniProt Q61091).
T1 construct: Extracellular CRD A28-R153, pHL-Avi3, BirA-biotinylated, secreted from HEK293T, immobilized on streptavidin SPR chip
T1 sequence (Q61091 28-153): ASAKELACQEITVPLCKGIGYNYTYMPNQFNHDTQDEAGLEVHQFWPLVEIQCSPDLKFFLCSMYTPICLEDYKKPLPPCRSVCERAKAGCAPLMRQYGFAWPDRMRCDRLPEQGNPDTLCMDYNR
In words: crystal structure at […] Å (N49E/N152E construct); SPR Kd on biotinylated FZD8CRD (A28-R153). Type of assay: binding.

One molecule from article PMC7104226, “Antiepileptic Drug Carbamazepine Binds to a Novel Pocket on the Wnt Receptor Frizzled-8” (Journal of Medicinal Chemistry, 2020) can be followed below.

As a reminder, the Kd is the constant that tells how readily two partners part at equilibrium. A higher Kd goes with weaker binding.

As for `NC(=O)N1c2ccccc2C=Cc2ccccc21` [compound 79, 5H-dibenzo[b,f]azepine-5-carboxamide], binding was characterised by a dissociation constant (Kd) of 17 µM.
